Test results taken from patent US20250241926A1, “HETEROCYCLIC COMPOUNDS FOR USE IN THE TREATMENT OF CANCER” (ARTIOS PHARMA LIMITED, priority 2021, published 2025).

Each substance was assayed against T1, Human Polθ polymerase domain (aa1820-2590) (Homo sapiens, UniProt O75417) (assay: Polθ Polymerase Domain Kinact/Kl Assay (PicoGreen)). Settings: covalent inhibitors, kobs vs [I] fit, 0.8 nM Polθ, 100 nM DNA substrate.
T1 construct: Human Polθ polymerase domain (aa1820-2590) was expressed in E. Coli; made in house; host or cells: E. coli
T1 sequence (O75417 1820-2590): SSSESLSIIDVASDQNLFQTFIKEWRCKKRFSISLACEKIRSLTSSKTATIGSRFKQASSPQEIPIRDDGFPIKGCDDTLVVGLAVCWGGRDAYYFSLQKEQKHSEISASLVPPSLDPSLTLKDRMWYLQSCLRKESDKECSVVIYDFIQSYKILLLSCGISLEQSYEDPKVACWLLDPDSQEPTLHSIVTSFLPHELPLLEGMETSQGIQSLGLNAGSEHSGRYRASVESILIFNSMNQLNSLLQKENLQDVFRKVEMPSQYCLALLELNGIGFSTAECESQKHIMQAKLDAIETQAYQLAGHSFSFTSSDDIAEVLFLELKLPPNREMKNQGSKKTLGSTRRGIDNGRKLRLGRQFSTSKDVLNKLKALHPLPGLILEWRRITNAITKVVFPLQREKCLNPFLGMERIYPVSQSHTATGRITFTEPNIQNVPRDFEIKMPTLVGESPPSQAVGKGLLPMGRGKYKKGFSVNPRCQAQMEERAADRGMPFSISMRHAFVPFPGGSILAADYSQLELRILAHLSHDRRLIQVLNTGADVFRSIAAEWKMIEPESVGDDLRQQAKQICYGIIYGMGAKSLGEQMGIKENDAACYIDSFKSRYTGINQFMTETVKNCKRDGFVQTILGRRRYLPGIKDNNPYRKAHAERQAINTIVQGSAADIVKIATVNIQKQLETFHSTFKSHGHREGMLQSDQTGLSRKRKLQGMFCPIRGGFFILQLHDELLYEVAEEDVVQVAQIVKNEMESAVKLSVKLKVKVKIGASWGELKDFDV
Type: biochemical
Summary of the method: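 E. coli-expressed enzyme (0.8 nM final) was run with 100 nM annealed DNA substrate and dNTPs in Tris pH 7.5 buffer (1% DMSO), with EDTA stops across a time course up to 60 min. Synthesised DNA was read by PicoGreen fluorescence. kobs per inhibitor concentration was fitted from the time courses, and Kinact and KI came from the kobs-vs-[I] plot.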

kinact/KI | Substance
500000 M⁻¹ s⁻¹ | (S)-2-((6-(2-(4-(1-Acrylo- ylazetidin-3-yl)piperazin- 1-yl)ethyl)-7-fluoro-1- methyl-2-oxo-1,2,3,4,5,6- hexahydrobenzo[b][1,4] diazocin-3-yl)amino)-6- methyl-4-(trifluorometh- yl)nicotinonitrile [Example 11]
560000 M⁻¹ s⁻¹ | (S,E)-2-((6-(2-(2- (4-(Dimethyl- amino)but-2-eno- yl)-5-methyl-7- oxo-2,5,8-triaza- spiro[3.5]nonan-8- yl)ethyl)-7-fluoro- 1-methyl-2-oxo- 1,2,3,4,5,6-hexa- hydrobenzo[b] [1,4]diazocin-3- yl)amino)-6-meth- yl-4-(trifluoro- methyl)nicotino- nitrile [Example 46]
5.7e+06 M⁻¹ s⁻¹ | (S,E)-2-((6-(2-((2- (4-(Dimethyl- amino)but-2-eno- yl)-2-azaspiro[3.3] heptan-6-yl)-oxy)- ethyl)-7-fluoro-1- methyl-2-oxo- 1,2,3,4,5,6-hexa- hydrobenzo[b] [1,4]diazocin-3- yl)amino)-6-meth- yl-4-(trifluoro- methyl)nicotino- nitrile [Example 45]
